Assay results as given in patent publication US20230340101A1, “METHODS FOR TREATING OR PREVENTING ALLERGIC ASTHMA BY ADMINISTERING AN IL-33 ANTAGONIST AND/OR AN IL-4R ANTAGONIST” (SANOFI BIOTECHNOLOGY, priority 2019, published 2023).
“Also recorded” adds a separate entry of the source.

Assays:
[1] = tested on: HDM-driven lung inflammation; assay: Chronic house dust mite (HDM) model of lung inflammation; format: in vivo; details: FIG. 5; for pro-inflammatory cytokines and chemokines (lung panel hIL-4, IL-5, IL-1b, TNFα, IFNg, GROa, MCP-1): chronic HDM model; for inflammation in chronic HDM model of lung inflammation (lung eosinophils, lung neutrophils): with and without anti-IL-33 treatment
Source text: Data is presented showing levels of lung eosinophils and lung neutrophils in the HDM model with and without anti-IL-33 treatment. A heat map of a lung cytokine gene panel is presented showing levels of hIL-4, IL-5, IL-1b, TNFα, IFNg, GROa, and MCP-1. Alveolar SMA testing data is presented as well.
Treatment with REGN3 500 suppressed pro-inflammatory cytokines and chemokines. […] Other data presented includes a heat map of lung of cytokine panel showing levels of hIL-4, IL-5, IL-1b, TNFα, IFNg, GROa, and MCP-1. Alveolar SMA testing was also performed.

[2] = tested on: BAC-induced inflammatory gene expression signatures in sputum; assay: Bronchial allergen challenge (BAC) with HDM in patients with mild allergic asthma: gene expression signatures (mRNA) in induced sputum; format: in vivo, human; details: for eosinophil gene signature scores: FIG. 14, post bronchial allergen challenge, across treatment arms; for allergen-induced eosinophilic signature and broader type 2 inflammatory signature, including CCL26, CCL17, and SIGLEC8: monotherapy, REGN3500 IV 10 mg/kg single dose, dupilumab SC 600 mg day 1, 300 mg day 15, sputum after BAC
Procedure: Bronchial allergen challenge involves patient inhalation of allergen that results in a biphasic airway response, which is characterized by an early (30 minutes to 2 hours post-allergen challenge) and a late (approximately 3 to 8 hours post-allergen challenge) decline in forced expiratory volume over 1 second (FEV1).
Enrolled patients undergo BAC during the screening period, and at 4 and 8 weeks after administration of the first doses of study drug(s). The effects of the study drugs on BAC-induced lung inflammation are assessed via measurements of sputum molecular signatures (mRNAs and proteins). The sputum molecular signatures are assessed before BAC (baseline) and after BAC (post-BAC) at screening and at weeks 4 and 8 after treatment initiation (FIG. 1). The BAC-induced difference in the sputum signatures before and after BAC are evaluated at screening (screening change) and at weeks 4 and 8 post-treatment (week 4 change and week 8 change) will be observed. Since both REGN3500 and dupilumab display long half-lives, BAC change is evaluated at both week 4 and week 8 in the current study, to monitor the durability of the potential impact of study drug treatment on airway inflammation. The effect of study drug treatment on induced sputum gene signatures is evaluated by the difference between the BAC-induced screening change and the BAC-induced week 4 change (screening to week 4 change) and by the difference between the BAC-induced screening change and the BAC-induced week 8 change (screening to week 8 change).
Part 1 of this study is a randomized, double-blind, placebo-controlled, double-dummy parallel group study in mild persistent allergic asthmatic patients to assess the effect of REGN3500, dupilumab, REGN3500 plus dupilumab combination, or placebo on lung inflammation (as measured by sputum cytokine mRNAs) and measurements of the late phase inflammatory airway response to a BAC using HDM. Patients are randomized to one of the following treatment groups: REGN3500 (IV single dose); dupilumab (SC 2 doses, Q2W); combination REGN3500 (IV single dose) plus dupilumab (SC 2 doses, Q2W), and placebo (IV single dose and SC 2 doses, Q2W).
Because the treatment groups in this study include a first clinical dosing of REGN3500 plus dupilumab combination, Part 1 is performed in 2 phases to address any potential safety issues. The first 8 patients are randomized 1:1:1:1 to receive study drug. On day 1: patients in the REGN3500 group receive REGN3500 IV 10 mg/kg, followed by dupilumab-matching placebo SC, patients in the dupilumab group receive REGN3500-matching placebo IV followed by a loading dose of dupilumab SC 600 mg (2 injections of 300 mg), patients in the REGN3500 plus dupilumab combination will receive REGN3500 10 mg/kg IV, followed by dupilumab SC 600 mg (2 injections of 300 mg), and patients in the placebo group will receive REGN3500-matching placebo IV, followed by 2 injections of dupilumab-matching placebo SC.
On day 15 (week 2), patients assigned to the dupilumab group or the REGN3500 plus dupilumab combination group receive dupilumab SC 300 mg and all other patients receive dupilumab-matching placebo SC.
All enrolled patients return to the clinic on day 24± 2 days and on day 52 ± 2 days to provide a baseline induced sputum sample. If an adequate sputum sample cannot be obtained, patients may return 72 hours later for a second attempt to produce baseline sputum. Pre-BAC sputum collection must occur at least 72 hours prior to the BAC. Seventy-two hours after the baseline induced sputum sample is collected, on day 29 ± 2 days and on day 57 ± 2 days, respectively, patients return to the clinic, and measurements of FEV1, and FeNO are performed prior to undergoing BAC with HDM. Sputum induction is performed 8 hours and 24 hours after inhaled BAC at both the days 29 ± 2 (week 4) and 57 ± 2 days (week 8) visits. […]

[3] = tested on: blood eosinophils, neutrophils, circulating type 2 inflammatory mediators; assay: BAC study: blood eosinophils, neutrophils and circulating type 2 inflammatory mediators; format: in vivo, human
Procedure: Circulating Biomarkers: circulating biomarker samples are collected at time points according to Table 1 and Table 2. Biomarker measurements are performed in serum and plasma samples to determine effects on biomarkers of inflammatory diseases pathobiology or relevant physiological and pathogenic processes. The biomarkers studied are ones believed to be relevant to the pathophysiology of diseases, target engagement, mechanism of action of REGN3500 (and/or combination therapy) and possible toxicities. Biomarkers studied in the blood may include but need not be limited to, IL-33, soluble ST2, calcitonin, and MMP12.

Substance | pro-inflammatory cytokines and chemokines (lung panel hIL-4, IL-5, IL-1b, TNFα, IFNg, GROa, MCP-1) ([1]; listed as REGN3 500) | pro-inflammatory cytokines and chemokines (lung panel hIL-4, IL-5, IL-1b, TNFα, IFNg, GROa, MCP-1) ([1]; listed as anti-IL-33) | inflammation in chronic HDM model of lung inflammation (lung eosinophils, lung neutrophils) [1] | inflammation in chronic HDM model of lung inflammation (lung eosinophils, lung neutrophils) ([1]; listed as anti-IL-33) | type 2 inflammatory cytokine and chemokine genes induced by BAC (IL-5, IL-13, Eot-3 (CCL26), TARC (CCL17), CCL1, FCER2, SIGLEC8) ([2]; FIG. 9, genes induced at 8 or 24 hours after allergen challenge, sputum) | eosinophil signature genes in sputum (ADARB1, ASB2, CLC, HDC, IL1RL1, PTPN7, SIGLEC8, SYNE1, VSTM1) ([2]; FIG. 11) | neutrophil signature genes ([2]; FIG. 11, sputum) | type 2 inflammatory signature genes in sputum (IL-4, IL-13, CCL26, CCL13, CCL17, CCL11, POSTN, IL-5, IL-9) ([2]; FIG. 12) | eosinophil gene signature scores [2] | decrease of type 2 signature scores ([2]; FIG. 15, compared with the fluticasone treatment arm) | allergic asthma signature genes (BC042385 ... RHOH) ([2]; FIG. 16, at 8 and/or 24 hours post BAC) | top allergic asthma signature genes induced by BAC at 24 hours (ASAP1-IT1 ... CCL17, CCL13, CCL26, SIGLEC8, IL13, IL5, PTGDS, RD3) ([2]; FIG. 17, screening vs treatment) | allergen-induced eosinophilic signature and broader type 2 inflammatory signature, including CCL26, CCL17, and SIGLEC8 [2] | neutrophils ([3]; in vivo) | other circulating type 2 inflammatory mediators ([3]; in vivo) | blood eosinophils ([3]; pharmacodynamic effect) | genes suppressed by REGN3500 (many of them) ([2]; albeit with different dynamics)
REGN3500: human anti-IL-33 antibody; HCVR/LCVR SEQ ID NOs: 2 and 10, heavy/light chain SEQ ID NOs: 18 and 20 | suppressed | suppresses | reduced inflammation | reduces inflammation | suppressed | suppressed; also recorded: suppression | No anti-IL-33 (REGN3500) treatment-mediated effects were noted; also recorded: did not have an effect | suppressed; also recorded: suppression | able to reduce | lower decrease | affected | suppressed | significantly inhibited | No anti-IL-33 mediated reduction | no anti-IL-33 mediated reduction | reduction in blood eosinophils was a consistent pharmacodynamic effect | 
dupilumab: human anti-IL-4R antibody; HCVR/LCVR SEQ ID NOs: 27 and 28, heavy/light chain SEQ ID NOs: 29 and 30 [reference compound] |  |  |  |  |  |  |  |  | able to reduce |  |  |  | significantly inhibited |  |  |  | also suppressed
